Source: ChEMBL document CHEMBL5154839, “Discovery of a selective and covalent small-molecule inhibitor of BFL-1 protein that induces robust apoptosis in cancer cells” (Eur J Med Chem, 2022)
Values belong to the compound of their own block, whether it stands above or below them.

Experiments:
Bcl-2-related protein A1 [1] = target: T1, Bcl-2-related protein A1 (Homo sapiens, UniProt Q16548); assay: Displacement of fluorescein tagged BID BH3 peptide from His-tagged recombinant BFL-1 (1 to 151 residues) (unknown origin) expressed in Escherichia coli BL21 (DE3) assessed as inhibition constant incubated for 24 hrs by fluorescence polarization-based competitive binding assay
T1 sequence (Q16548 whole entry): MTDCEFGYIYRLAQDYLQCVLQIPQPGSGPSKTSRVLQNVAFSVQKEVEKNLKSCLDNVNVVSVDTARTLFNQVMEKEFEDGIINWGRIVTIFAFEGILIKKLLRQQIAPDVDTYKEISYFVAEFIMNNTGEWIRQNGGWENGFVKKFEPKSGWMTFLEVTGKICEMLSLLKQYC

Bcl-2-related protein A1 [2] = target: T1, Bcl-2-related protein A1
Description: Inhibition of His-tagged human BFL-1(1 to 151 residues) expressed in Escherichia coli BL21 (DE3) by fluorescence polarization-based binding assay

Bcl-2-like protein 2 = Bcl-2-like protein 2 (Homo sapiens, UniProt Q92843); assay: Displacement of fluorescent-labeled BID-BH3 peptide from human BCL-W expressed in Escherichia coli BL21 (DE3) assessed as inhibition constant by fluorescence polarization-based competitive binding assay
Sequence of Bcl-2-like protein 2 (Q92843 whole entry): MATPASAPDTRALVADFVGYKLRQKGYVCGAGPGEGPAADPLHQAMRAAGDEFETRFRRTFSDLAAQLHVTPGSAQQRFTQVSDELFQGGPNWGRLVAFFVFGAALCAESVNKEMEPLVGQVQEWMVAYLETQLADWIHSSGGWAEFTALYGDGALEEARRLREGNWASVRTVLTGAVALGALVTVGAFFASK

Bcl-2-like protein 1 = Bcl-2-like protein 1 (Homo sapiens, UniProt Q07817); assay: Displacement of fluorescent-labeled BID-BH3 peptide from human BCL-xL expressed in Escherichia coli BL21 (DE3) assessed as inhibition constant by fluorescence polarization-based competitive binding assay
Sequence of Bcl-2-like protein 1 (Q07817 whole entry, the tested form may be a part): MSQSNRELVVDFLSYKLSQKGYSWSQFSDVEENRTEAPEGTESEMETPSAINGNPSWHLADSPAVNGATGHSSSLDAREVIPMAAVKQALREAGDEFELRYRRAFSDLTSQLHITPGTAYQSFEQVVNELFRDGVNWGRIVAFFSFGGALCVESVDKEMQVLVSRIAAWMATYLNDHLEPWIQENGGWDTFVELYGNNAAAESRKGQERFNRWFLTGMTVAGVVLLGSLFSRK

Bcl-2-related protein A1 [3] = target: T1, Bcl-2-related protein A1; assay: Displacement of fluorescent-labeled BID-BH3 peptide from His-tagged human BFL-1 (1 to 151 residues) expressed in Escherichia coli BL21 (DE3) assessed as inhibition constant by fluorescence polarization-based competitive binding assay
[4] = target: Apoptosis regulator Bcl-2 (Homo sapiens, UniProt P10415); assay: Displacement of fluorescent-labeled BID-BH3 peptide from human BCL-2 expressed in Escherichia coli BL21 (DE3) assessed as inhibition constant by fluorescence polarization-based competitive binding assay
Sequence of Apoptosis regulator Bcl-2 (P10415 whole entry): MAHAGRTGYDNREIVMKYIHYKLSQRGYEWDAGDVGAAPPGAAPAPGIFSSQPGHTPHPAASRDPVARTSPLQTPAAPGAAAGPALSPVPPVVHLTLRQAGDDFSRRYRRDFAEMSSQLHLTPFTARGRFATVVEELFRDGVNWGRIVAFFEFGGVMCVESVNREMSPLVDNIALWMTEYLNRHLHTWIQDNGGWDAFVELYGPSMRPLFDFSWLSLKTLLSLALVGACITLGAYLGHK

RPMI-8226 = assay: Growth inhibition of human RPMI-8226 cells incubated for 4 days by WST assay; assay type: functional, cell-based; conditions: RPMI-8226, 96 h
Raji = assay: Growth inhibition of human Raji cells incubated for 4 days by WST assay; assay type: functional, cell-based; conditions: 96 h
MM1.S = assay: Growth inhibition of human MM1.S cells incubated for 4 days by WST assay; assay type: functional, cell-based; conditions: 96 h
[5] = Displacement of fluorescein tagged BID BH3 peptide from His-tagged recombinant BFL-1 (1 to 151 residues) C55A mutant (unknown origin) expressed in Escherichia coli BL21 (DE3) assessed as inhibition constant incubated for 24 hrs by fluorescence polarization-based competitive binding assay; set-up: species or system Homo sapiens
HL-60 = assay: Growth inhibition of human HL-60 cells incubated for 4 days by WST assay; assay type: functional, cell-based; conditions: HL-60, 96 h
U-937 [6] = assay: Growth inhibition of human U-937 cells incubated for 4 days by WST assay; assay type: functional, cell-based; conditions: U-937, 96 h
K562 = assay: Growth inhibition of human K562 cells incubated for 4 days by WST assay; assay type: functional, cell-based; conditions: K562, 96 h
Kasumi 1 = assay: Growth inhibition of human Kasumi 1 cells incubated for 4 days by WST assay; assay type: functional, cell-based; conditions: Kasumi 1, 96 h
MV4-11 = assay: Growth inhibition of human MV4-11 cells incubated for 4 days by WST assay; assay type: functional, cell-based; conditions: MV4-11, 96 h
[7] = target: Induced myeloid leukemia cell differentiation protein Mcl-1 (Homo sapiens, UniProt Q07820); assay: Displacement of fluorescent-labeled BID-BH3 peptide from His-tagged human MCL-1 expressed in Escherichia coli BL21 (DE3) assessed as inhibition constant by fluorescence polarization-based competitive binding assay
Sequence of Induced myeloid leukemia cell differentiation protein Mcl-1 (Q07820 whole entry): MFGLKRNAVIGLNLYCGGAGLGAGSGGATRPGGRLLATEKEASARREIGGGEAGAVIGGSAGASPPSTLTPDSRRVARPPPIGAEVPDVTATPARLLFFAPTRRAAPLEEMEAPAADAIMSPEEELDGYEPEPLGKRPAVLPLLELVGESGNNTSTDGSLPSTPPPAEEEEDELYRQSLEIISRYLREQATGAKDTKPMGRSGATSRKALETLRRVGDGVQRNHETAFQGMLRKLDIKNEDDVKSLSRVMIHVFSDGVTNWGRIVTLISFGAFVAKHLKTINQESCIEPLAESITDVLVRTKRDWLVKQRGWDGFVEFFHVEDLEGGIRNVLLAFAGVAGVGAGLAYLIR

U-937 [8] = assay: Induction of apoptosis in human U-937 cells assessed as late apoptotic cells at 20 uM measured after 4 hrs by Annexin PI staining based flow cytometry method (reference value: 1.62 %); assay type: functional
U-937 [9] = assay: Induction of apoptosis in human U-937 cells assessed as necrotic cells at 10 uM measured after 4 hrs by Annexin PI staining based flow cytometry method (reference value: 0.00 %); assay type: functional
U-937 [10] = assay: Induction of apoptosis in human U-937 cells assessed as necrotic cells at 60 uM measured after 4 hrs by Annexin PI staining based flow cytometry method (reference value: 0.00 %); assay type: functional
U-937 [11] = assay: Induction of apoptosis in human U-937 cells assessed as necrotic cells at 40 uM measured after 4 hrs by Annexin PI staining based flow cytometry method (reference value: 0.00 %); assay type: functional
U-937 [12] = assay: Induction of apoptosis in human U-937 cells assessed as late apoptotic cells at 60 uM measured after 4 hrs by Annexin PI staining based flow cytometry method (reference value: 1.62 %); assay type: functional
U-937 [13] = assay: Induction of apoptosis in human U-937 cells assessed as late apoptotic cells at 10 uM measured after 4 hrs by Annexin PI staining based flow cytometry method (reference value: 1.62 %); assay type: functional
U-937 [14] = assay: Induction of apoptosis in human U-937 cells assessed as late apoptotic cells at 40 uM measured after 4 hrs by Annexin PI staining based flow cytometry method (reference value: 1.62 %); assay type: functional
U-937 [15] = assay: Induction of apoptosis in human U-937 cells assessed as early apoptotic cells at 60 uM measured after 4 hrs by Annexin PI staining based flow cytometry method (reference value: 1.95 %); assay type: functional
U-937 [16] = assay: Induction of apoptosis in human U-937 cells assessed as early apoptotic cells at 20 uM measured after 4 hrs by Annexin PI staining based flow cytometry method (reference value: 1.95 %); assay type: functional
U-937 [17] = assay: Induction of apoptosis in human U-937 cells assessed as necrotic cells at 20 uM measured after 4 hrs by Annexin PI staining based flow cytometry method (reference value: 0.00 %); assay type: functional
U-937 [18] = assay: Induction of apoptosis in human U-937 cells assessed as early apoptotic cells at 40 uM measured after 4 hrs by Annexin PI staining based flow cytometry method (reference value: 1.95 %); assay type: functional
U-937 [19] = assay: Induction of apoptosis in human U-937 cells assessed as early apoptotic cells at 10 uM measured after 4 hrs by Annexin PI staining based flow cytometry method (reference value: 1.95 %); assay type: functional

Ki (Bcl-2-related protein A1 [1]): 2.41 µM
Structure (SMILES): C=CC(=O)N1CCN(c2c3ccc(-c4cccc(F)c4)cc3nn2CCCO)CC1

IC50 (Bcl-2-related protein A1 [2]): 1.3 µM
Structure (SMILES): CC(=O)NC(Cc1c[nH]c2ccccc12)C(=O)NCCSSCCN(C)C (stereo not given)

Ki (Bcl-2-like protein 2): 12.5 µM | Ki (Bcl-2-like protein 1): 50 µM | Ki (Bcl-2-related protein A1 [3]): 0.4 µM | Ki [4]: 12.5 µM
Structure (SMILES): CN1CCN(C2=C(Cl)C(=O)N(c3ccc(Cl)c(Cl)c3)C2=O)CC1

Ki (Bcl-2-related protein A1 [1]): > 100 µM
Structure (SMILES): C=CC(=O)N1CCN(c2c3ccc(-c4cccc(F)c4)cc3nn2Cc2cccc(C(=O)O)c2)CC1

Ki (Bcl-2-related protein A1 [1]): > 100 µM
Structure (SMILES): C=CC(=O)N1CCN(c2c3ccc(-c4cccc(F)c4)cc3nn2Cc2cccc(Cl)c2)CC1

IC50 (RPMI-8226): 21.3 µM | IC50 (Raji): 51.5 µM | IC50 (MM1.S): 32.6 µM | IC50 (HL-60): 32.8 µM | IC50 (U-937 [6]): 19.9 µM | IC50 (K562): 18.9 µM | IC50 (MV4-11): 20.8 µM
Structure (SMILES): CC(C)(C)c1ccc(CN2CCN(S(=O)(=O)Nc3ccc(SCCc4ccccc4)cc3C(=O)O)CC2)cc1
Ki [5]: 2.28 µM | IC50 (Kasumi 1): 20.3 µM

Ki (Bcl-2-related protein A1 [1]): 18.1 µM
Structure (SMILES): C=CC(=O)N1CCN(c2c3ccc(-c4cccc(F)c4)cc3nn2CCCN(C)C)CC1

Ki [7]: > 0.444 µM
Structure (SMILES): CC1(C)CCC(CN2CCN(c3ccc(C(=O)NS(=O)(=O)c4ccc(NCC5CCOCC5)c([N+](=O)[O-])c4)c(Oc4cnc5[nH]ccc5c4)c3)CC2)=C(c2ccc(Cl)cc2)C1 [VENETOCLAX]

Ki (Bcl-2-related protein A1 [3]): 2.9 µM | Ki [4]: 12.9 µM
Structure (SMILES): CSc1ccc(C(Nc2ccccn2)c2c(C)[nH]c3ccccc23)cc1 (stereo not given)

Ki (Bcl-2-related protein A1 [1]): > 100 µM
Structure (SMILES): C=CC(=O)N1CCN(c2c3ccc(-c4cccc(F)c4)cc3nn2Cc2ccc(Cl)cc2)CC1

Ki (Bcl-2-related protein A1 [1]): 2.85 µM
Structure (SMILES): C=CC(=O)N1CCN(c2c3ccc(-c4cccc(F)c4)cc3nn2CC)CC1

Ki (Bcl-2-related protein A1 [1]): 3.34 µM
Structure (SMILES): C=CC(=O)N1CCN(c2c3ccc(-c4cccc(F)c4)cc3nn2Cc2cccc(C#N)c2)CC1

Ki (Bcl-2-related protein A1 [1]): > 100 µM
Structure (SMILES): C=CC(=O)N1CCN(c2c3ccc(-c4cccc(F)c4)cc3nn2Cc2ccc(OC)cc2)CC1

Ki (Bcl-2-related protein A1 [1]): 3.23 µM
Structure (SMILES): C=CC(=O)N1CCN(c2c3ccc(-c4cccc(F)c4)cc3nn2Cc2ccc(C#N)cc2)CC1

Ki (Bcl-2-related protein A1 [1]): > 100 µM
Structure (SMILES): C=CC(=O)N1CCN(c2c3ccc(-c4cccc(F)c4)cc3nn2CCCOC)CC1

Ki (Bcl-2-related protein A1 [1]): 1.13 µM
Structure (SMILES): C=CC(=O)N1CCN(c2c3ccc(-c4cccc(F)c4)cc3nn2CCC)CC1

Ki (Bcl-2-related protein A1 [1]): 3.01 µM
Structure (SMILES): COc1cccc(Cn2nc3cc(-c4cccc(F)c4)ccc3c2N2CCNCC2)c1

Ki (Bcl-2-related protein A1 [1]): 10.2 µM
Structure (SMILES): C=CC(=O)N1CCN(c2c3ccc(-c4cccc(F)c4)cc3nn2Cc2ccc(O)cc2)CC1

IC50 (RPMI-8226): 11.8 µM | IC50 (Raji): 48.2 µM | IC50 (MM1.S): 16.8 µM | Ki (Bcl-2-related protein A1 [1]): 24.1 µM | IC50 (HL-60): 28.9 µM | IC50 (U-937 [6]): 9.3 µM | IC50 (K562): 10.4 µM | IC50 (MV4-11): 8.9 µM
Structure (SMILES): CCC(=O)N1CCN(c2c3ccc(-c4cccc(F)c4)cc3nn2Cc2ccccc2)CC1
Activity (U-937 [8]): 1.8% | Activity (U-937 [9]): 0.16% | Activity (U-937 [10]): 0.03% | Activity (U-937 [11]): 0.03% | Activity (U-937 [12]): 2.06% | Activity (U-937 [13]): 2.02% | Ki [5]: > 200 µM | Activity (U-937 [14]): 1.57% | Activity (U-937 [15]): 3.65% | Activity (U-937 [16]): 2.79% | Activity (U-937 [17]): 0.05% | Activity (U-937 [18]): 3.14% | IC50 (Kasumi 1): 7.1 µM | Activity (U-937 [19]): 1.96%

Ki (Bcl-2-related protein A1 [1]): > 100 µM
Structure (SMILES): C=CC(=O)N1CCN(c2c3ccc(-c4cccc(F)c4)cc3nn2Cc2ccc(C(=O)O)cc2)CC1

Ki (Bcl-2-related protein A1 [1]): > 100 µM
Structure (SMILES): C=CC(=O)N1CCN(c2c3ccc(-c4cccc(F)c4)cc3nn2CCC(C)(C)C)CC1

Ki (Bcl-2-related protein A1 [1]): 18.4 µM
Structure (SMILES): C=CC(=O)N1CCN(c2c3ccc(-c4cccc(F)c4)cc3nn2Cc2cccc(O)c2)CC1
